The values below come from patent publication US12240862B2, “Inhibitors of peptidylarginine deiminases” (Gilead Sciences, Inc., priority 2020, dated 2025).

By IC50 is commonly meant the concentration that gives 50% inhibition.

The assay deals with T1, human PAD4 (Homo sapiens, UniProt Q9UM07).
T1 construct: human PAD4 (NM_012387), A2P663, was PCR amplified; His-SUMO (N, cleaved yes); made in house; host or cells: E. coli BL21(DE3)
T1 sequence (Q9UM07 2-663): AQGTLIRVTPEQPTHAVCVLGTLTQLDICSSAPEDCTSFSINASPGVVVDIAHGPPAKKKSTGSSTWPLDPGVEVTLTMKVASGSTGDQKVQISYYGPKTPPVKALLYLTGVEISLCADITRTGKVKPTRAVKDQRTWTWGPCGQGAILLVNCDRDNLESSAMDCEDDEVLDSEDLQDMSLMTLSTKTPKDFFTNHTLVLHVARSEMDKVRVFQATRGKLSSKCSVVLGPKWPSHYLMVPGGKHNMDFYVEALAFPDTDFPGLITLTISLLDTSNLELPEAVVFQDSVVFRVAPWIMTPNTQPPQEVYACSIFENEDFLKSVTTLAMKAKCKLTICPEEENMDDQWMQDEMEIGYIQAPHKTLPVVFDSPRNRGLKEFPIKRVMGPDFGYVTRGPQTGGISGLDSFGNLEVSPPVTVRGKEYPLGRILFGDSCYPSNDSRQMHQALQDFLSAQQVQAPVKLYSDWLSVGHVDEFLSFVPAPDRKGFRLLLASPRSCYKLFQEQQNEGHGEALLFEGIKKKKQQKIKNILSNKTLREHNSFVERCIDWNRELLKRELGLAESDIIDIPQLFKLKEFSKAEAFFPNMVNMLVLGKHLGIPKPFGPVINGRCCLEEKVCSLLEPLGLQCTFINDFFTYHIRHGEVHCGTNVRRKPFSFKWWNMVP
As to the kind of experiment: In vitro PAD4 BAEE biochemical assay. The conditions noted are these: human PAD4, BAEE substrate; 5 nM PAD4, 2 mM calcium chloride, 3 mM BAEE; geometric mean of multiple experiments. In outline:
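Tag-free recombinant hPAD4 (5 nM), 2 mM CaCl2, 3 mM BAEE, 50 mM MOPS pH 7.6, 2 mM DTT; 30 min compound preincubation, 2 h reaction, all 25 °C. EDTA quench; ammonia read via o-phthalaldehyde amine coupling, 1 h.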
Take `COc1cc(C(=O)N2[C@H]3CC[C@@H]2[C@H](N)C3)cc2nc(-c3cc4ccc([C@@H](C)NC(=O)C(C)(O)C(C)C)nc4n3CC3CC3)c(C)n12` (some centres unmarked) [Example 93, ~{N}-[(1~{R})-1-[2-[7-[(1~ {R},2~{R},4~{S})-2-amino-7-azabicyclo[2.2.1]heptane-7-carbonyl]-5-methoxy-3-methylimidazo [1,2-a]pyridin-2-yl]-1-(cyclopropylmethyl)pyrrolo [2,3-b]pyridin-6-yl]ethyl]-2-hydroxy-2,3-dimethylbutanamide]: the half-maximal inhibitory concentration (IC50) was found to be 68.4 nM. Turning to `COc1cc(C(=O)N2[C@H]3CC[C@@H]2[C@H](N)C3)cc2nc(-c3cc4ccc([C@@H](C)NC(=O)C56CC(C#N)(C5)C6)nc4n3CC3CC3)c(C3CC3)n12` [Example 140, ~{N}-[(1~{R})-1-[2-[7-[(1~{R},2~{R},4~{S})-2-amino-7-azabicyclo[2.2.1]heptane-7-carbonyl]-3-cyclopropyl-5-methoxyimidazo[1,2-a]pyridin-2-yl]-1-(cyclopropylmethyl)pyrrolo[2,3-b]pyridin-6-yl]ethyl]-3-cyanobicyclo[1.1.1]pentane-1-carboxamide], the IC50 came to 118 nM. As to `COc1cc(C(=O)N2[C@H]3CC[C@@H]2[C@H](N)C3)cc2nc(-c3cc4ccc(N5CCCC6(CC6)S5(=O)=O)nc4n3CC3CC3)c(C)n12` [Example 457, [(1~{R},2~{R},4~{S})-2-amino-7-azabicyclo [2.2.1]heptan-7-yl]-[2-[1-(cyclopropylmethyl)-6-(4,4-dioxo-4$l^6-thia-5-azaspiro[2.5]octan-5-yl)pyrrolo[2,3-b]pyridin-2-yl]-5-methoxy-3-methylimidazo[1,2-a]pyridin-7-yl]methanone], the IC50 was 52.2 nM. In the case of `CCc1ccc2cc(-c3nc4cc(C(=O)N5[C@H]6CC[C@@H]5[C@H](N)C6)cc(OC)n4c3C)n(CCC(C)(C)C#N)c2n1` [Example 508, 4-[2-[7-[(1~{R},2~{R}, 4~{S})-2-amino-7-azabicyclo[2.2.1]heptane-7-carbonyl]-5-methoxy-3-methylimidazo[1,2-a]pyridin-2-yl]-6-ethylpyrrolo [2,3-b]pyridin-1-yl]-2,2-dimethylbutanenitrile] it was 277 nM; in that of `CS(=O)(=O)N(c1ccc2cc(-c3nc4cc(C(=O)N5[C@H]6CC[C@@H]5[C@H](N)C6)ccn4c3C3CC3)n(CC3CC3)c2n1)C(F)F` [Example 386, ~{N}-[2-[7-[(1~{R},2~{R}, 4~{S})-2-amino-7-azabicyclo[2.2.1]heptane-7-carbonyl]-3-cyclopropylimidazo [1,2-a]pyridin-2-yl]-1-(cyclopropylmethyl)pyrrolo [2,3-b]pyridin-6-yl]-~{N}-(difluoromethyl) methanesulfonamide], 126 nM; in that of `COc1cc(C(=O)N2[C@H]3CC[C@@H]2[C@H](N)C3)cc2nc(-c3cc4ccc([C@@H](C)NC(=O)C(C)(C)O)nc4n3CC3CC3)c(C)n12` [Example 126, ~{N}-[(1~{R})-1-[2-[7-[(1~{R},2~{R},4~{S})-2-amino-7-azabicyclo[2.2.1]heptane-7-carbonyl]-5-methoxy-3-methylimidazo [1,2-a]pyridin-2-yl]-1-(cyclopropylmethyl)pyrrolo [2,3-b]pyridin-6-yl]ethyl]-2-hydroxy-2-methylpropanamide], 45.9 nM.

Take `COc1cc(C(=O)N2[C@H]3CC[C@@H]2[C@H](N)C3)cc2nc(-c3cc4ccc(N5[C@@H](C)COCS5(=O)=O)nc4n3CC3CC3)c(C)n12` [Example 439, [(1~{R},2~{R},4~{S})-2-amino-7-azabicyclo [2.2.1]heptan-7-yl]-[2-[1-(cyclopropylmethyl)-6-[(5~{S})-5-methyl-3,3-dioxo-1,3,4-oxathiazinan-4-yl]pyrrolo [2,3-b]pyridin-2-yl]-5-methoxy-3-methylimidazo [1,2-a]pyridin-7-yl] methanone]: the IC50 is 24.3 nM. In the case of `COc1cc(C(=O)N2[C@H]3CC[C@@H]2[C@H](N)C3)cc2nc(-c3cc4ccc([C@@H](C)N5CCCC5=O)nc4n3CC3CC3)c(C)n12` [Example 276, 1-[(1~{R})-1-[2-[7-[(1~{R},2~{R},4~{S})-2-amino-7-azabicyclo[2.2.1]heptane-7-carbonyl]-5-methoxy-3-methylimidazo [1,2-a]pyridin-2-yl]-1-(cyclopropylmethyl)pyrrolo [2,3-b]pyridin-6-yl]ethyl]pyrrolidin-2-one] it was 61.6 nM; in that of `COc1cc(C(=O)N2CCC3CCNCC32)cc2nc(-c3cc4ccc(N(C(F)F)S(C)(=O)=O)nc4n3CC3CC3)c(C)n12` (centres unmarked) [Example 322, ~{N}-[2-[7-(2,3,3~{a}, 4,5,6,7,7~ {a}-octahydropyrrolo[2,3-c]pyridine-1-carbonyl)-5-methoxy-3-methylimidazo [1,2-a]pyridin-2-yl]-1-(cyclopropylmethyl)pyrrolo [2,3-b]pyridin-6-yl]-~{N}-(difluoromethyl) methanesulfonamide], 258 nM.

Turning to `COc1cc(C(=O)N2[C@H]3CC[C@@H]2[C@H](N)C3)cc2nc(-c3cc4ccc([C@@H](C)NC(=O)N(C(C)C)C(C)C)nc4n3CC3CC3)c(C)n12` [Example 236, 3-[(1~{R})-1-[2-[7-[(1~{R},2~{R},4~{S})-2-amino-7-azabicyclo[2.2.1]heptane-7-carbonyl]-5-methoxy-3-methylimidazo [1,2-a]pyridin-2-yl]-1-(cyclopropylmethyl)pyrrolo [2,3-b]pyridin-6-yl]ethyl]-1,1-di(propan-2-yl)urea], the IC50 turned out to be 55.6 nM. In the case of `COc1cc(C(=O)N2CC[C@H]3CCCN[C@H]3C2)cc2nc(-c3cc4ccc(N(C(F)F)S(C)(=O)=O)nc4n3CC3CC3)c(C3CC3)n12` [Example 310, ~{N}-[2-[7-[(4~{a}~{R},8~{a}~{R})-2,3,4,4~{a},5,6,8,8~{a}-octahydro-1~{H}-1,7-naphthyridine-7-carbonyl]-3-cyclopropyl-5-methoxyimidazo [1,2-a]pyridin-2-yl]-1-(cyclopropylmethyl)pyrrolo [2,3-b]pyridin-6-yl]-~{N}-(difluoromethyl) methanesulfonamide] it was 886 nM. Under `COc1cc(C(=O)N2[C@H]3CC[C@@H]2[C@H](N)C3)cc2nc(-c3cc4ccc([C@@H](C)NC(=O)c5cnn(C(F)F)c5)nc4n3CC3CC3)c(C)n12` [Example 107] stands 44.3 nM; under `COc1cc(C(=O)N2CCC3(CCCNC3)C2)cc2nc(-c3cc4ccc([C@@H](C)NC(=O)C56CC(F)(C5)C6)nc4n3CC3CC3)c(C)n12` (some centres unmarked) [Example 5, ~{N}-[(1~{R})-1-[1-(cyclopropylmethyl)-2-[7-(2,9-diazaspiro[4.5]decane-2-carbonyl)-5-methoxy-3-methylimidazo[1,2-a]pyridin-2-yl]pyrrolo [2,3-b]pyridin-6-yl]ethyl]-3-fluorobicyclo[1.1.1] pentane-1-carboxamide], 19000 nM. As for `CC(=O)NCc1c(-c2cc3ccc(N(C(F)F)S(C)(=O)=O)nc3n2CC2CC2)nc2cc(C(=O)N3CCC[C@@H](N)C3)ccn12` [Example 437, ~{N}-[[7-[(3~{R})-3-aminopiperidine-1-carbonyl]-2-[1-(cyclopropylmethyl)-6-[difluoromethyl (methylsulfonyl)amino]pyrrolo[2,3-b]pyridin-2-yl]imidazo[1,2-a]pyridin-3-yl]methyl]acetamide], the IC50 is 550 nM.

On to `COc1cc(C(=O)N2[C@H]3CC[C@@H]2[C@H](N)[C@H](OC)C3)cc2nc(-c3cc4ccc([C@@H](C)NC(=O)C56CC(F)(C5)C6)nc4n3CC3CC3)c(C)n12` [Example 22, ~{N}-[(1~{R})-1-[2-[7-[(1~{R},2~{S},3~{R}, 5~{S})-2-amino-3-methoxy-8-azabicyclo [3.2.1]octane-8-carbonyl]-5-methoxy-3-methylimidazo [1,2-a]pyridin-2-yl]-1-(cyclopropylmethyl)pyrrolo[2,3-b]pyridin-6-yl]ethyl]-3-fluorobicyclo[1.1.1] pentane-1-carboxamide], for which the half-maximal inhibitory concentration (IC50) was 483 nM.

For the compound `COc1cc(C(=O)N2CCC[C@@H](N)C2)cc2nc(-c3cc4ccc(C(C)C)nc4n3CC3CC3)c(C)n12` [Example 608, [(3~{R})-3-aminopiperidin-1-yl]-[2-[1-(cyclopropylmethyl)-6-propan-2-ylpyrrolo [2,3-b]pyridin-2-yl]-5-methoxy-3-methylimidazo [1,2-a]pyridin-7-yl] methanone], the IC50 is 544 nM.

For the compound `CCC1C(N)C2CCC1N2C(=O)c1cc(OC)n2c(C)c(-c3cc4ccc(N(C(F)F)S(C)(=O)=O)nc4n3CC3CC3)nc2c1` (single isomer, unassigned) [Example 347], the IC50 was found to be 10100 nM. In the case of `COc1cc(C(=O)N2[C@H]3CC[C@@H]2[C@H](N)C3)cc2nc(-c3cc4ccc([C@@H](C)NC(=O)N5CC(O)(C(F)(F)F)C5)nc4n3CC3CC3)c(C)n12` [Example 197, ~{N}-[(1~{R})-1-[2-[7-[(1~{R},2~{R},4~{S})-2-amino-7-azabicyclo[2.2.1]heptane-7-carbonyl]-5-methoxy-3-methylimidazo [1,2-a]pyridin-2-yl]-1-(cyclopropylmethyl)pyrrolo [2,3-b]pyridin-6-yl]ethyl]-3-hydroxy-3-(trifluoromethyl)azetidine-1-carboxamide], the concentration for half-maximal inhibition (IC50) came to 41.3 nM. Consider `CCc1ccc2cc(-c3nc4cc(C(=O)N5CC[C@@H](OC)[C@@H](N)C5)cc(OC)n4c3C)n(CC3CC3)c2n1` [Example 579, [(3~{S},4~{R})-3-amino-4-methoxypiperidin-1-yl]-[2-[1-(cyclopropylmethyl)-6-ethylpyrrolo[2,3-b]pyridin-2-yl]-5-methoxy-3-methylimidazo[1,2-a]pyridin-7-yl]methanone], for which the IC50 was 412 nM.

`COc1cc(C(=O)N2[C@H]3CC[C@@H]2[C@H](N)C3)cc2nc(-c3cc4ccc([C@@H](C)NC(C)=O)nc4n3CC3CC3)c(C)n12` [Example 179, ~{N}-[(1~{R})-1-[2-[7-[(1~{R},2~{R},4~{S})-2-amino-7-azabicyclo[2.2.1]heptane-7-carbonyl]-5-methoxy-3-methylimidazo [1,2-a]pyridin-2-yl]-1-(cyclopropylmethyl)pyrrolo [2,3-b]pyridin-6-yl]ethyl] acetamide]: the IC50 came to 85 nM.
